In doi:10.1101/2023.09.11.557162v4 (biorxiv, 2025):
Like-named read-outs stand apart in the source and are kept apart here.

Key:
Experiment in all cases: DNA-dependent ATPase assay
Format in all cases: biochemical
SMARCA4 = SMARCA4 (Homo sapiens, UniProt P51532)
SMARCA2 = SMARCA2 (Homo sapiens, UniProt P51531)
CHD4 = CHD4 (Homo sapiens, UniProt Q14839)
CHD4, sequence (Q14839 whole entry): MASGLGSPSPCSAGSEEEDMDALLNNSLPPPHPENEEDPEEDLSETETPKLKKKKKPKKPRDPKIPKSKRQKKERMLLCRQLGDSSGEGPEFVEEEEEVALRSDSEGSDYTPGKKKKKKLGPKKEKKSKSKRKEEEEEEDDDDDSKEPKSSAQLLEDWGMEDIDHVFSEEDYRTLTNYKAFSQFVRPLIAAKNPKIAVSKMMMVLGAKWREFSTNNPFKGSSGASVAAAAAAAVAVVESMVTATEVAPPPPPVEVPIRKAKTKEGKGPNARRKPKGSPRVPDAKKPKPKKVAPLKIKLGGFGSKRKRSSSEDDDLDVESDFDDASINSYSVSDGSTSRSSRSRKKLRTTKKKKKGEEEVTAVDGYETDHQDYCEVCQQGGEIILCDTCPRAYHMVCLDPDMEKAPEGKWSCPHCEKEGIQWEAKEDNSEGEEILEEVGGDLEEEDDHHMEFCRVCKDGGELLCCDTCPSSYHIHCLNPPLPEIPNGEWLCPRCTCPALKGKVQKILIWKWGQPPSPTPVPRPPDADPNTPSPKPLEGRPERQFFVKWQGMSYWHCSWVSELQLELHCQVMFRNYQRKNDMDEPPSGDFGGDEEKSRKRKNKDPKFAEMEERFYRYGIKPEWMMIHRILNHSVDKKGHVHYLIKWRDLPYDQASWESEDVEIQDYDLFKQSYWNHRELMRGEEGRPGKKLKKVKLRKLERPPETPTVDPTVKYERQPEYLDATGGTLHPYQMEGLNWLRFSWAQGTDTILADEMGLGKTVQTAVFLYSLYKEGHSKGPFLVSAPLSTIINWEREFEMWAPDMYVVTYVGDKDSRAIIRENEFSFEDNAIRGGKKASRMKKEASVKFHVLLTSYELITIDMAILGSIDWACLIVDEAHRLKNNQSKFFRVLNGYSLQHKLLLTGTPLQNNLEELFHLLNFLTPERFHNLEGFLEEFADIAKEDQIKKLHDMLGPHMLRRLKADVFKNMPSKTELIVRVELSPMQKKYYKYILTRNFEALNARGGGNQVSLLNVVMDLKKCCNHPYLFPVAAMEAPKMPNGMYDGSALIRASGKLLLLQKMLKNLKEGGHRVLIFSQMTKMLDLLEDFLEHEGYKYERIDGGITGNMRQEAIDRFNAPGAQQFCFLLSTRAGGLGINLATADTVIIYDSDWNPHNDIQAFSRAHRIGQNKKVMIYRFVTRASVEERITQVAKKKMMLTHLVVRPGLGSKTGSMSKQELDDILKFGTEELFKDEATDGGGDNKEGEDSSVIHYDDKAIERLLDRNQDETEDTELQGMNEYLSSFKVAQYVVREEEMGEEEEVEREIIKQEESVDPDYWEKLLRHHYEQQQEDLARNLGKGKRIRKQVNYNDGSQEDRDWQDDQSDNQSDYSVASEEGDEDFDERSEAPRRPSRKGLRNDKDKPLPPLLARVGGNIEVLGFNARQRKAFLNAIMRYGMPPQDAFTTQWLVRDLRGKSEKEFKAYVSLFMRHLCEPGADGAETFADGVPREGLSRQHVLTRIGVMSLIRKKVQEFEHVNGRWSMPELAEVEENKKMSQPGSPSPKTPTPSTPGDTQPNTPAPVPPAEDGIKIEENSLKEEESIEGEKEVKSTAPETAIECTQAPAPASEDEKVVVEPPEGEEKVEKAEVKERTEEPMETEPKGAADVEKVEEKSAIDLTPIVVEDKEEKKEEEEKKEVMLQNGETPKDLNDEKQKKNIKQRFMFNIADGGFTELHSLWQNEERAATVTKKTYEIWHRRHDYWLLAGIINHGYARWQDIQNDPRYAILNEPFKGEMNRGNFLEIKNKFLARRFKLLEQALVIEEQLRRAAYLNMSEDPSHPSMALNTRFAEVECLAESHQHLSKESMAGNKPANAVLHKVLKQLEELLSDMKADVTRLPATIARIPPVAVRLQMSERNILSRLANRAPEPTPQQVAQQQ

SMARCA4, sequence (P51532 whole entry): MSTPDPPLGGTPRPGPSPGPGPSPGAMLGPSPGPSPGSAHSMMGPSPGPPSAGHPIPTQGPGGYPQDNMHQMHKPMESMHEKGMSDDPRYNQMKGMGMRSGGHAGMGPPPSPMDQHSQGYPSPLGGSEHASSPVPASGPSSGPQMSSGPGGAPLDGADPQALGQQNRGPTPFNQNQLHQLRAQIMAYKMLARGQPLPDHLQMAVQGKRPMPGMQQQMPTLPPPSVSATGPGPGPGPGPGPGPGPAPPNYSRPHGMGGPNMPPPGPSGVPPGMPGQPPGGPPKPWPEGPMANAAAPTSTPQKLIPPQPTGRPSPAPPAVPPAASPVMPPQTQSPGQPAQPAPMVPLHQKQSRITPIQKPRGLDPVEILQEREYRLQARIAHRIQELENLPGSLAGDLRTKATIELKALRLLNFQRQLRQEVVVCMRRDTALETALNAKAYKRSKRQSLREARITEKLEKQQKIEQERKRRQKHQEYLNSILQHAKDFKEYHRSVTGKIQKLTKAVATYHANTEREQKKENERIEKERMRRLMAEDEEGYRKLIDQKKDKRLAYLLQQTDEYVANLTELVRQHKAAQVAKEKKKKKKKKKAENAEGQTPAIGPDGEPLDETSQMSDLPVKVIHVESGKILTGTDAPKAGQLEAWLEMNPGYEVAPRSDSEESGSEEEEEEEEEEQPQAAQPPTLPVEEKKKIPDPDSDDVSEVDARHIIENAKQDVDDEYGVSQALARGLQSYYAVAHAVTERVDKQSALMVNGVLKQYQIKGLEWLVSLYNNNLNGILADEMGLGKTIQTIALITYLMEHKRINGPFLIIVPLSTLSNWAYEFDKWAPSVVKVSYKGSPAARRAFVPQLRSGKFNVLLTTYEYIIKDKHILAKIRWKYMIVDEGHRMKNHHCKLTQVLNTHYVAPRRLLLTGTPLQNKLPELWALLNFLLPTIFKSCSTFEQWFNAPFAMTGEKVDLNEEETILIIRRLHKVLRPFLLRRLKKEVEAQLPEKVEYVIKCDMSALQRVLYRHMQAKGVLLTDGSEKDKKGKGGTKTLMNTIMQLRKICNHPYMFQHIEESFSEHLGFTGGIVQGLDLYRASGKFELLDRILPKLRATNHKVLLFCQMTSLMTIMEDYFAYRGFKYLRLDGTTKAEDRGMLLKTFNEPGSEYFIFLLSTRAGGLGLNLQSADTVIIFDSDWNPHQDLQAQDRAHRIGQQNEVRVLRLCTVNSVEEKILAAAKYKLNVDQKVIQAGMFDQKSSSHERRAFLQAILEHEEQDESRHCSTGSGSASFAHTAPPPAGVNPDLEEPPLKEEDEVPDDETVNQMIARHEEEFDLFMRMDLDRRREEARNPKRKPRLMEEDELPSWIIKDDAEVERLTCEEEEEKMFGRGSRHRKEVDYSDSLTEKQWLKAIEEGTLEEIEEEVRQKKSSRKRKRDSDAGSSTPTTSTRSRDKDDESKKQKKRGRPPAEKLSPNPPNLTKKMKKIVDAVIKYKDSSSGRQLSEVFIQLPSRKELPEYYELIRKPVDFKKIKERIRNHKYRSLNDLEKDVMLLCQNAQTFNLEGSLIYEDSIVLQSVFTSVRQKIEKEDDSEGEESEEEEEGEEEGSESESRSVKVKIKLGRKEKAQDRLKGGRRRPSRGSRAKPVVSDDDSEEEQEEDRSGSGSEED
SMARCA2, sequence (P51531 whole entry): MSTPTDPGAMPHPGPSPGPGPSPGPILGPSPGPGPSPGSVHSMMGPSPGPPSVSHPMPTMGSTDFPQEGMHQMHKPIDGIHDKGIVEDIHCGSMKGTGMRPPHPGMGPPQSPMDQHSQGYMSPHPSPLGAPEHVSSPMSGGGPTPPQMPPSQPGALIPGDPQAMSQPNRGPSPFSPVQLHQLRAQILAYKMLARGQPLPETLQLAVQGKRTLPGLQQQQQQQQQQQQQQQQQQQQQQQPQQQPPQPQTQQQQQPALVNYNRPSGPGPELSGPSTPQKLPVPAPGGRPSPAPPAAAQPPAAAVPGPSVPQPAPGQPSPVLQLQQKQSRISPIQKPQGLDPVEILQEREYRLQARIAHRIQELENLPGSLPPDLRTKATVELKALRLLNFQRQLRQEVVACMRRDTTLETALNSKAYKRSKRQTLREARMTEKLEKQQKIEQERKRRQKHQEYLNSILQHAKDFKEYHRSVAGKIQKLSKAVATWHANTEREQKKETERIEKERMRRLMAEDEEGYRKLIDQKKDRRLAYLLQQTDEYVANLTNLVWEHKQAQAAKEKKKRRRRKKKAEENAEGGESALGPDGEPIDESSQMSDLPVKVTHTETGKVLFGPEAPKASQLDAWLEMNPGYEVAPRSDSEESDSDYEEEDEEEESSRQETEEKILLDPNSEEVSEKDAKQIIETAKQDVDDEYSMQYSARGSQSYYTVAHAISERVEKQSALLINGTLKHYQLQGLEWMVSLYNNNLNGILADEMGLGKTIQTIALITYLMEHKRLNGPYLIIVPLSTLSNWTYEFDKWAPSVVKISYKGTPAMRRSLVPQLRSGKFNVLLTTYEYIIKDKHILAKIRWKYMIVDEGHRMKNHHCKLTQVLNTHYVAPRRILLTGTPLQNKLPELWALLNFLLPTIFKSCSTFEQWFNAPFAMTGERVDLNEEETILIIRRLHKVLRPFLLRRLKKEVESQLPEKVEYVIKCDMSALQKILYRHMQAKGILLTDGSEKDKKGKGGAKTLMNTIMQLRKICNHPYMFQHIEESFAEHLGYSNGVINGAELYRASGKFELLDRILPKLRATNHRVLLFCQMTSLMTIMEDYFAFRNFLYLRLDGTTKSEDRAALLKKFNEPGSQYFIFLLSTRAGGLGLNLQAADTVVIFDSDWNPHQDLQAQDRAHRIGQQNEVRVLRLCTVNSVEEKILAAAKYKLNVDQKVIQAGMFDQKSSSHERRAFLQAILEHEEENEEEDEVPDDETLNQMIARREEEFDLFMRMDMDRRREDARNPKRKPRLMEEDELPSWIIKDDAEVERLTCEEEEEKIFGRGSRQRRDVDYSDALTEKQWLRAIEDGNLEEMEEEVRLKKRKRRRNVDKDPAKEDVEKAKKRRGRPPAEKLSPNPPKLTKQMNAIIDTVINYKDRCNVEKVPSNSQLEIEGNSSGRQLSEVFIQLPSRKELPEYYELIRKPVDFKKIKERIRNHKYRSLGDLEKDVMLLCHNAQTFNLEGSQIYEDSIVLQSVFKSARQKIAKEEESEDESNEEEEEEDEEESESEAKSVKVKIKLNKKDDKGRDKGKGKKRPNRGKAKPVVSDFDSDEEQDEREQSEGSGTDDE

Compound | IC50 (SMARCA4) [nM] | IC50 (SMARCA2) [nM] | IC50 (SMARCA4; DNA-stimulated ATPase) [nM] | IC50 (CHD4) [nM]
CN(C)S(=O)(=O)c1cccc(C(=O)NCC(=O)Nc2nc(-c3ccccc3)cs2)c1 [FHT-185] | 6040 ± 1040 | 2500 ± 500 |  | 
COC[C@H](NC(=O)c1ccn(S(C)(=O)=O)c1)C(=O)Nc1nc(-c2cccc(-c3ccn(C)n3)c2)cs1 [FHT-2344] |  | 13 ± 3 | 26 ± 6 | > 200000
